Laboratory results published in patent publication US20230131376A1, “ADJUVANT-ANTIBIOTIC COMBINATION AGAINST GRAM-NEGATIVE BACTERIA” (University of Notre Dame du Lac, priority 2020, published 2023).

Assays:
[1] = tested on: mcr-1 plasmid containing E. coli, K. pneumoniae, and A. baumannii; assay: Colistin potentiation stated for all three mcr-1 strains together
[2] = tested on: several MDR Gram-negative bacterial strains; details: cited from earlier work
A. baumannii 3941 = assay: Colistin potentiation, chromosomally colistin resistant A. baumannii 3941; assay type: cell-based
Description: (§1) Broth microdilution method for antibiotic potentiation.

K. pneumoniae C3 = assay: Colistin potentiation, chromosomally colistin resistant K. pneumoniae C3; assay type: cell-based
Description: as §1

A. baumannii 4106 = assay: Colistin potentiation, chromosomally colistin resistant A. baumannii 4106; assay type: cell-based
Description: as §1

4T1 cells = assay: MTT cell viability assay; assay type: cell-based, mouse; details: 4T1 cells, 18 h, concentration giving 50% cell viability; for CT50, Compound + colistin: with 1 μg/mL colistin; for CT50, Compound alone: without colistin
Method: MTT Cell Viability Assay. 4T1 cells (ATCC Manassas, Va.) were plated at a density of 1×10^4 cells/well in 96-well plates. (Roswell Park Memorial Institute Media 1640, Gibco, Gaithersburg, Md.) supplemented with 10% Fetal Bovine Serum (Gibco), 2 mM GlutaMAX (Gibco) and 50 μM 2-mercaptoethanol (Sigma Aldrich St. Louis, Mo.) and incubated at 37° C. under a 5% CO2 atmosphere in the dark for 18 h. Cell cultures were treated with serial dilutions of compounds in the presence or absence of 1 μg/mL colistin (3 replicates per condition) and incubated for an additional 18 hours. The following control conditions were used: media only (blank), 1% Triton X100 (0% cell viability), 0.5% DMSO (100% cell viability). Each condition was then treated with 10% volume of a 5 mg/mL solution of 3-(4,5-dimethylthiazol-2-yl)-2,5-diphenyltetrazolium bromide (MTT) (Sigma Aldrich) in sterile filtered 1× phosphate buffered saline (PBS) and incubated for 2 h. at 37° C. in 5% CO2, after which the media was aspirated and the resulting formazan crystals were resuspended in 100 μL acidified (4 mM HCl) isopropanol. The 96-well plate was then read at 540 nm on a FLUOstar Optima (BMG Labtech Cary, N.C.) microplate reader. Cell viability was calculated as a percentage using the two previously mentioned controls.

K. pneumoniae B9 = assay: Colistin potentiation, chromosomally colistin resistant K. pneumoniae B9; assay type: cell-based; details: K. pneumoniae B9
Description: as §1

[3] = adjuvant at 15 μM, susceptibility breakpoint 2 μg/mL

O=C(NCCc1c[nH]c2ccccc12)c1ccc(Cl)c(Cl)c1 [Compound 1d, N-(2-(1H-indol-3-yl)ethyl)-3,4-dichlorobenzamide]
colistin MIC with adjuvant, all three mcr-1 strains ([1]; adjuvant at 50 μM): 2 µg/mL
fold reduction of colistin MIC, all mcr-1 containing strains ([1]; adjuvant at 50 μM): 4-8 fold

O=C(NCCc1c[nH]c2ccccc12)c1cc(Cl)c(Cl)[nH]1 [Compound 2]
ability to potentiate colistin activity [2]: demonstrated the ability to potentiate colistin activity

CC(C)n1cc(-c2cccc(NC(=O)Nc3cc(Br)cc(Br)c3)c2)nc1N [Compound 3]
ability to potentiate colistin activity [2]: demonstrated the ability to potentiate colistin activity

CCNc1nccc(-c2c[nH]c3ccc(Br)cc23)n1 [Compound 4]
ability to potentiate colistin activity [2]: demonstrated the ability to potentiate colistin activity

O=C(NCCc1c[nH]c2ccccc12)Nc1cc(Br)cc(Br)c1 [Compound 8b, 1-(2-(1H-indol-3-yl)ethyl)-3-(3,5-dibromophenyl)urea]
colistin MIC with adjuvant (A. baumannii 3941; adjuvant at 10 μM): 16 µg/mL
colistin MIC with adjuvant (A. baumannii 3941; adjuvant at 15 μM): 8 µg/mL
colistin MIC with adjuvant (A. baumannii 3941; adjuvant at 20 μM): 8 µg/mL
colistin MIC with adjuvant (K. pneumoniae C3; adjuvant at 10 μM): 8 µg/mL
colistin MIC with adjuvant (K. pneumoniae C3; adjuvant at 15 μM): 4 µg/mL
colistin MIC with adjuvant (K. pneumoniae C3; adjuvant at 20 μM): 2 µg/mL
colistin MIC with adjuvant (A. baumannii 4106; adjuvant at 10 μM): 8 µg/mL
colistin MIC with adjuvant (A. baumannii 4106; adjuvant at 15 μM): 4 µg/mL
colistin MIC with adjuvant (A. baumannii 4106; adjuvant at 20 μM): 4 µg/mL
CT50, Compound + colistin (4T1 cells): 64.2 µM
CT50, Compound alone (4T1 cells): 86.2 µM
colistin MIC with adjuvant (K. pneumoniae B9; adjuvant at 7.5 μM): 4 µg/mL
colistin MIC with adjuvant (K. pneumoniae B9; adjuvant at 8 μM): 32 µg/mL
colistin MIC with adjuvant (K. pneumoniae B9; adjuvant at 10 μM): 1 µg/mL
colistin MIC with adjuvant (K. pneumoniae B9; adjuvant at 15 μM): 0.5 µg/mL
colistin MIC with adjuvant, all three mcr-1 strains [1, 3]: lowered the colistin MIC to the susceptibility breakpoint

O=C(NCCc1c[nH]c2ccccc12)Nc1cc(C(F)(F)F)cc(C(F)(F)F)c1 [Compound 8c, 1-(2-(1H-indol-3-yl)ethyl)-3-(3,5-bis(trifluoromethyl)phenyl)urea]
CT50, Compound + colistin (4T1 cells): 61.8 µM
CT50, Compound alone (4T1 cells): 60.5 µM
colistin MIC with adjuvant, all three mcr-1 strains [1, 3]: lowered the colistin MIC to the susceptibility breakpoint

O=C(NCCc1c[nH]c2ccccc12)Nc1ccc(Cl)c(Cl)c1 [Compound 8d, 1-(2-(1H-indol-3-yl)ethyl)-3-(3,4-dichlorophenyl)urea]
CT50, Compound + colistin (4T1 cells): 104.8 µM
CT50, Compound alone (4T1 cells): 117.3 µM

O=C(NCCc1c[nH]c2ccccc12)Nc1cc(Cl)c(Br)c(Cl)c1 [Compound 8e, 1-(2-(1H-indol-3-yl)ethyl)-3-(4-bromo-3,5-dichlorophenyl)urea]
colistin MIC with adjuvant, all three mcr-1 strains [1, 3]: lowered the colistin MIC to the susceptibility breakpoint

O=C(NCCc1c[nH]c2ccc(Br)cc12)Nc1ccc(Cl)c(Cl)c1 [Compound 9d, 1-(2-(5-bromo-1H-indol-3-yl)ethyl)-3-(3,4-dichlorophenyl)urea]
colistin MIC with adjuvant (A. baumannii 3941; adjuvant at 10 μM): 8 µg/mL
colistin MIC with adjuvant (A. baumannii 3941; adjuvant at 15 μM): 4 µg/mL
colistin MIC with adjuvant (A. baumannii 3941; adjuvant at 20 μM): 2 µg/mL
colistin MIC with adjuvant (K. pneumoniae C3; adjuvant at 10 μM): 4 µg/mL
colistin MIC with adjuvant (K. pneumoniae C3; adjuvant at 15 μM): 2 µg/mL
colistin MIC with adjuvant (K. pneumoniae C3; adjuvant at 20 μM): 1 µg/mL
colistin MIC with adjuvant (A. baumannii 4106; adjuvant at 10 μM): 4 µg/mL
colistin MIC with adjuvant (A. baumannii 4106; adjuvant at 15 μM): 2 µg/mL
colistin MIC with adjuvant (A. baumannii 4106; adjuvant at 20 μM): 2 µg/mL
CT50, Compound + colistin (4T1 cells): 84.6 µM
CT50, Compound alone (4T1 cells): 125.5 µM
colistin MIC with adjuvant (K. pneumoniae B9; adjuvant at 5 μM): 8 µg/mL
colistin MIC with adjuvant (K. pneumoniae B9; adjuvant at 7.5 μM): 2 µg/mL
colistin MIC with adjuvant (K. pneumoniae B9; adjuvant at 10 μM): 1 µg/mL
colistin MIC with adjuvant (K. pneumoniae B9; adjuvant at 15 μM): 0.5 µg/mL

CC(C)n1cc(-c2cccc(NC(=O)Nc3cc(Cl)c(Br)c(Cl)c3)c2)nc1N [Compound 14, reference compound]
CT50, Compound + colistin (4T1 cells): 15.6 µM
CT50, Compound alone (4T1 cells): 23.2 µM
